Data from US9242996B2 (Novartis AG, priority 2013, dated 2016).

Assays:
Assay type in all cases: biochemical
activated ERK2 [1] = target: T1, activated ERK2 (Homo sapiens (Human), UniProt P28482); assay: Activated ERK2 kinase assay, ERK2 New conditions (AlphaScreen, ERKtide phosphorylation); conditions: 0.25 nM ERK2, 200 nM ERKtide peptide, 35 μM ATP, 30 min preincubation
Method in brief: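 Read-out is AlphaScreen with anti-phospho-EGFR (Thr669) antibody after EDTA quench and overnight dark incubation. Reaction: 0.25 nM ERK2, 30 min compound preincubation, then 200 nM ERKtide plus 35 µM ATP for 2–3 h at ambient temperature, pH 7.5. IC50 by four-parameter fit.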

ERK2 = ERK2 (Homo sapiens (Human), UniProt P28482); assay: ERK2 Alphascreen
activated ERK2 [2] = target: T1, activated ERK2; assay: Activated ERK2 (20 pM) Kinase Assay (AlphaScreen, ERKtide phosphorylation); conditions: 0.02 nM ERK2, 400 nM ERKtide peptide, 35 μM ATP, 30 min preincubation
Method in brief: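 AlphaScreen read-out (anti-phospho-EGFR Thr669 antibody, protein A acceptor/streptavidin donor beads) of ERKtide (400 nM) phosphorylation by 20 pM activated ERK2 at 35 μM ATP.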

T1 sequence (P28482 whole entry): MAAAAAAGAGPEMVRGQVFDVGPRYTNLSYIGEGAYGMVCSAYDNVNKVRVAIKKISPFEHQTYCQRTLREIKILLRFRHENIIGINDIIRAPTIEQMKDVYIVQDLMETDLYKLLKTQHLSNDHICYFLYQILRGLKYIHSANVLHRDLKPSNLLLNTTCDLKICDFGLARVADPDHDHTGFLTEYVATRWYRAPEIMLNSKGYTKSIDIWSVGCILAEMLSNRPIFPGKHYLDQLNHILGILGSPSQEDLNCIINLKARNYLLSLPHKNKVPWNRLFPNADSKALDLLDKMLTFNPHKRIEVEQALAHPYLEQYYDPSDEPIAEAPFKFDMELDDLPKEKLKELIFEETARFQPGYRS
Chain of ERK2 (P28482 whole entry, species assumed): as the sequence (P28482 whole entry) above

Nc1ncc(C2CCOCC2)nc1-c1ccc(C(=O)N[C@H](CO)c2ccccc2)cc1 [Example 1, (S)-4-(3-amino-6-(tetrahydro-2H-pyran-4-yl)pyrazin-2-yl)-N-(2-hydroxy-1-phenylethyl)benzamide]
IC50 (activated ERK2 [1]): 1.63 nM
IC50 (ERK2): 1.06 nM

CN(Cc1ccccc1)C(=O)c1ccc(-c2nc(C3CCOCC3)cnc2N)cc1F [Example 52, 4-(3-amino-6-(tetrahydro-2H-pyran-4-yl)pyrazin-2-yl)-N-benzyl-2-fluoro-N-methylbenzamide]
IC50 (activated ERK2 [1]): 30.3 nM
IC50 (ERK2): 31.2 nM

Nc1ncc(C2CCOCC2)cc1-c1ccc(C(=O)N[C@H](CO)c2ccccc2)cc1Cl [Example 68, (S)-4-(2-amino-5-(tetrahydro-2H-pyran-4-yl)pyridin-3-yl)-3-chloro-N-(2-hydroxy-1-phenylethyl)benzamide]
IC50 (activated ERK2 [1]): 314 nM
IC50 (ERK2): 214 nM

Nc1ncc(C2CCOCC2)cc1-c1ccc(C(=O)NCc2cnccn2)c(F)c1 [Example 75, 4-(2-amino-5-(tetrahydro-2H-pyran-4-yl)pyridin-3-yl)-2-fluoro-N-(pyrazin-2-ylmethyl)benzamide]
IC50 (activated ERK2 [1]): 1220 nM
IC50 (ERK2): 1160 nM

Cc1cnccc1-c1cnc(N)c(-c2ccc(C(=O)N[C@H](CO)c3ccccc3)c(F)c2)c1 [Example 83, (S)-4-(6-amino-3′-methyl-3,4′-bipyridin-5-yl)-2-fluoro-N-(2-hydroxy-1-phenylethyl)benzamide]
IC50 (activated ERK2 [1]): 0.752 nM
IC50 (ERK2): 0.574 nM

C[C@@H]1CN(c2cnc(N)c(-c3ccc(C(=O)N[C@H](CO)c4ccccc4)cc3)c2)C[C@H](C)O1 [Example 97, 4-(2-amino-5-((2S,6R)-2,6-dimethylmorpholino)pyridin-3-yl)-N-((S)-2-hydroxy-1-phenylethyl)benzamide]
IC50 (activated ERK2 [1]): 233 nM
IC50 (ERK2): 110 nM

Nc1ncc(N2CCOCC2)cc1-c1ccc(C(=O)N[C@H](CO)c2ccccc2)cc1 [Example 122, (S)-4-(2-amino-5-morpholinopyridin-3-yl)-N-(2-hydroxy-1-phenylethyl)benzamide]
IC50 (activated ERK2 [2]): 7.38 nM
IC50 (ERK2): 11 nM

Cc1cnccc1-c1cnc(N)c(-c2ccc(C(=O)N[C@H](CO)c3ccccc3)c(F)c2)n1 [Example 143, (S)-4-(3-amino-6-(3-methylpyridin-4-yl)pyrazin-2-yl)-2-fluoro-N-(2-hydroxy-1-phenylethyl)benzamide]
IC50 (activated ERK2 [2]): 0.364 nM
IC50 (ERK2): 0.265 nM

Nc1ncc(C2CCOCC2)cc1-c1ccc(C(=O)NCc2ccnnc2)c(F)c1 [Example 318, 4-(2-amino-5-(tetrahydro-2H-pyran-4-yl)pyridin-3-yl)-2-fluoro-N-(pyridazin-4-ylmethyl) benzamide]
IC50 (activated ERK2 [2]): 381 nM
IC50 (ERK2): 311 nM

Nc1ncc(C2CCOCC2)nc1-c1ccc(C(=O)NCc2ccccc2)c(F)c1 [Example 324, 4-(3-amino-6-(tetrahydro-2H-pyran-4-yl)pyrazin-2-yl)-N-benzyl-2-fluorobenzamide]
IC50 (activated ERK2 [1]): 6.83 nM
IC50 (ERK2): 6.17 nM

Nc1ncc(C2CCOCC2)nc1-c1ccc(C(=O)NC[C@@H](O)c2ccccc2)c(F)c1 [Example 333, (S)-4-(3-amino-6-(tetrahydro-2H-pyran-4-yl)pyrazin-2-yl)-2-fluoro-N-(2-hydroxy-2-phenylethyl) benzamide]
IC50 (activated ERK2 [1]): 34.6 nM
IC50 (ERK2): 33.8 nM

Cc1cccc(CNC(=O)c2ccc(-c3nc(C4CCOCC4)cnc3N)cc2F)n1 [Example 334, 4-(3-amino-6-(tetrahydro-2H-pyran-4-yl)pyrazin-2-yl)-2-fluoro-N-((6-methylpyridin-2-yl)methyl) benzamide]
IC50 (activated ERK2 [1]): 25.2 nM
IC50 (ERK2): 19.4 nM

(S)-4-(3-amino-6- (tetrahydro-2H- pyran-4- yl)pyrazin-2-yl)-2- fluoro-N-(2- hydroxy-1- phenylethyl) benzamide [Example 325]
IC50 (activated ERK2 [2]): 0.593 nM
IC50 (ERK2): 0.544 nM
